Source: patent publication US8394968B2, “Hepatitis C virus inhibitors” (Bristol-Myers Squibb Company, priority 2009, dated 2013)
Read-outs that look alike come from different tables or passages of the source.

Test system: HCV 1b genotype
Assay: HCV Replicon assay (HCV-neo replicon cells, wild-type; luciferase reporter variants also used)
Format: cell-based
Details: Hepatitis C virus, HCV 1b genotype replicon
Experimental: An HCV Replicon assay was utilized in the present disclosure, and was prepared, conducted and validated as described in commonly owned PCT/US2006/022197 and in O'Boyle et. al. Antimicrob Agents Chemother. 2005 April; 49(4):1346-53. Assay methods incorporating luciferase reporters have also been used as described (Apath.com).
HCV-neo replicon cells and replicon cells containing mutations in the NS5A region were used to test the currently described family of compounds. The compounds were determined to have more than 10-fold less inhibitory activity on cells containing mutations than wild-type cells. Thus, the compounds of the present disclosure can be effective in inhibiting the function of the HCV NS5A protein and are understood to be as effective in combinations as previously described in application PCT/US2006/022197 and commonly owned WO/04014852. Further, the compounds of the present disclosure can be effective against the HCV 1b genotype. It should also be understood that the compounds of the present disclosure can inhibit multiple genotypes of HCV. […] In one embodiment, compounds of the present disclosure are inhibitory versus 1a, 1b, 2a, 2b, 3a, 4a, and 5a genotypes.

Structure (SMILES)	EC50 (read-out: EC50)	EC50 (class symbol, read-out: EC50 Range)
COC(=O)NC(C(=O)N1CCC[C@H]1c1nc2ccc(-c3ccc(-c4ccc5c(ccc6[nH]c([C@@H]7CCCN7C(=O)C(NC(=O)OC)c7ccccc7)nc65)c4)cc3)cc2[nH]1)c1ccccc1 (stereo in doubt) [J.27c, methyl ((1R)-2-((2S)-2-(7-(4-(2-((2S)-1-((2R)-2-((methoxycarbonyl)amino)-2-phenylacetyl)-2-pyrrolidinyl)-1H-benzimidazol-5-yl)phenyl)-1H-naphtho[1,2-d]imidazol-2-yl)-1-pyrrolidinyl)-2-oxo-1-phenylethyl)carbamate]	0.003 nM	–
COC(=O)NC(C(=O)N1CCC[C@H]1c1nc2ccc(C#Cc3cccc(-c4[nH]cnc4[C@@H]4CCCN4C(=O)[C@@H](NC(=O)OC)C(C)C)c3)cc2[nH]1)C(C)C (stereo in doubt) [J.28l, methyl ((1S)-1-(((2S)-2-(5-(3-((2-((2S)-1-((2R)-2-((methoxycarbonyl)amino)-3-methylbutanoyl)-2-pyrrolidinyl)-1H-benzimidazol-5-yl)ethynyl)phenyl)-1H-imidazol-4-yl)-1-pyrrolidinyl)carbonyl)-2-methylpropyl)carbamate]	7 nM	4.57 to 99 nM
